Assay results as given in the supplement of paper PMC10307832.

Key:
Assay in all cases: relative viability (nuclei count vs DMSO), 5 days (fraction); higher = more cells survive
[1] = compound: C1=CC2=NC=CN=C2C=C1/C=C/3\C(=O)NC(=O)S3 + CCNC(=O)c1noc(-c2cc(C(C)C)c(O)cc2O)c1-c1ccc(CN2CCOCC2)cc1 [Luminespib] (partner 0.01 µM)
Procedure, shortened: (§1)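 A single step with final 0.05% Triton X-100, 1% formaldehyde and 1 ug/ml Hoechst fixed the cells and stained nuclei 5 days after treatment. Lung cancer cell lines in 1536-well plates had been treated by pin tool the day after seeding with one drug alone or a fixed anchor-drug dose plus five library-drug doses (not always all listed) in √10 steps, and nuclei were counted on 4× images. Relative viability is the ratio of nuclei in treated wells to nuclei in vehicle wells, taken as the median of duplicate plates.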

[2] = compound: CCN1CCN(c2ccc(Nc3cc(N(C)C(=O)Nc4c(Cl)c(OC)cc(OC)c4Cl)ncn3)cc2)CC1 [BGJ398] + NC(=O)Nc1cc(-c2cccc(F)c2)sc1C(=O)N[C@H]1CCCNC1 [AZD7762] (partner 0.2 µM)
Procedure, shortened: as §1

[3] = compound: C1=CC2=NC=CN=C2C=C1/C=C/3\C(=O)NC(=O)S3 + CS(=O)(=O)N1CCN(Cc2cc3nc(-c4cccc5[nH]ncc45)nc(N4CCOCC4)c3s2)CC1 [Pictilisib] (partner 1 µM)
Procedure, shortened: as §1

[4] = compound: CCN1CCN(c2ccc(Nc3cc(N(C)C(=O)Nc4c(Cl)c(OC)cc(OC)c4Cl)ncn3)cc2)CC1 [BGJ398] + COc1cccc2cc(-c3nc([C@H]4CC[C@H](C(=O)O)CC4)n4ncnc(N)c34)[nH]c12 [OSI-027] (partner 0.5 µM)
Procedure, shortened: as §1

Cell Line	relative viability ([1]; first compound 0.02 µM)	relative viability ([1]; first compound 0.06325 µM)	relative viability ([1]; first compound 0.2 µM)	relative viability ([1]; first compound 0.6325 µM)	relative viability ([1]; first compound 2 µM)	relative viability ([2]; first compound 0.01 µM)	relative viability ([2]; first compound 0.03162 µM)	relative viability ([2]; first compound 0.1 µM)	relative viability ([2]; first compound 0.3162 µM)	relative viability ([2]; first compound 1 µM)	relative viability ([3]; first compound 0.02 µM)	relative viability ([3]; first compound 0.06325 µM)	relative viability ([3]; first compound 0.2 µM)	relative viability ([3]; first compound 0.6325 µM)	relative viability ([3]; first compound 2 µM)	relative viability ([4]; first compound 0.01 µM)	relative viability ([4]; first compound 0.03162 µM)	relative viability ([4]; first compound 0.1 µM)	relative viability ([4]; first compound 0.3162 µM)	relative viability ([4]; first compound 1 µM)
NCI-H1993	0.712	0.863	0.854	0.798	0.557	0.953	0.85	0.593	0.94	0.803	0.811	0.881	0.757	0.878	0.592	0.525	0.535	0.564	0.507	0.649
NCI-H2085	0.489	0.44	0.435	0.452	0.428	1.04	0.974	0.948	0.884	0.963	0.417	0.394	0.533	0.455	0.486	0.706	0.673	0.84	0.663	0.807
NCI-H2087	0.169	0.208	0.227	0.173	0.203	1.13	1.23	1.23	1.45	1.5	0.77	1.11	0.913	0.798	0.995	0.359	0.639	0.587	0.63	0.546
NCI-H2126	0.86	1.12	0.866	0.83	0.601	1.08	1.05	1.05	1.06	1.03	0.448	0.56	0.498	0.474	0.411	0.864	0.705	0.664	0.721	0.687
